pIC50: −log10 of the molar value. Converted amounts (≈) assume the structure as drawn.
How the values were obtained:
[1] = tested on: Staphylococcus aureus ATCC 12600; test: MIC, spiral gradient endpoint assay; conditions: ATCC12600, read-out: MIC S. aureus 12600
[2] = tested on: Francisella tularensis SCHU4; test: microbe, parasite or virus in culture; assay type: cell-based; conditions: SCHU4, read-out: MIC F. tularensis SCHU4
[3] = tested on: Enterococcus faecalis ATCC 19433; test: MIC, spiral gradient endpoint assay; conditions: ATCC19433, read-out: MIC E. faecalis 19433
[4] = tested on: Moraxella catarrhalis ATCC 25238; test: MIC, spiral gradient endpoint assay (GC II agar, 5% CO2); conditions: ATCC25238, read-out: MIC M. catarrhalis 25238
[5] = tested on: Streptococcus pneumoniae ATCC 49619; test: as above; conditions: ATCC49619, read-out: MIC S. pneumoniae 49619
[6] = tested on: Escherichia coli D21f2tolC; test: MIC, spiral gradient endpoint assay; conditions: read-out: MIC E. coli D21f2tolC
[7] = target: E. coli RNA polymerase σ70 holoenzyme (Escherichia coli (strain K12), UniProt P0A8T7+P0A8V2); test: Fluorescence-detected RNA polymerase assay, E. coli RNAP; assay type: biochemical
Protocol: (§1) Fluorescence-detected RNA polymerase assays with E. coli RNA polymerase were performed by a modification of the procedure of Kuhlman et al., 2004 [Kuhlman, P., Duff, H. & Galant, A. (2004) A fluorescence-based assay for multisubunit DNA-dependent RNA polymerases. Anal. Biochem. 324, 183-190]. Reaction mixtures contained (20 μl): 0-100 nM test compound, 75 nM E. coli RNA polymerase σ^70 holoenzyme, 20 nM 384 bp DNA fragment containing the bacteriophage T4 N25 promoter, 100 μM ATP, 100 μM GTP, 100 μM UTP, 100 μM CTP, 50 mM Tris-HCl, pH 8.0, 100 mM KCl, 10 mM MgCl2, 1 mM DTT, 10 μg/ml bovine serum albumin, and 5.5% glycerol. Reaction components other than DNA and NTPs were pre-incubated for 10 min at 37° C. Reactions were carried out by addition of DNA and incubation for 5 min at 37° C., followed by addition of NTPs and incubation for 60 min at 37° C. DNA was removed by addition of 1 μl 5 mM CaCl2 and 2 U DNaseI (Ambion, Inc.), followed by incubation for 90 min at 37° C. RNA was quantified by addition of 100 μl RiboGreen RNA Quantitation Reagent (Invitrogen, Inc.; 1:500 dilution in Tris-HCl, pH 8.0, 1 mM EDTA), followed by incubation for 10 min at 25° C., followed by measurement of fluorescence intensity [excitation wavelength=485 nm and emission wavelength=535 nm; QuantaMaster QM1 spectrofluorometer (PTI, Inc.)]. IC50 is defined as the concentration of inhibitor resulting in 50% inhibition of RNA polymerase activity.

[8] = target: S. aureus RNA polymerase core enzyme + σA (Staphylococcus aureus (strain NCTC 8325 / PS 47), UniProt P47768+Q2G0N5); test: Fluorescence-detected RNA polymerase assay, S. aureus RNAP; assay type: biochemical
Protocol: as §1
(§2) Fluorescence-detected RNA polymerase assays with S. aureus RNA polymerase were performed as in Example 21.1, using reaction mixtures containing (20 μl): 0-100 nM test compound, 75 nM S. aureus RNA polymerase core enzyme, 300 nM S. aureus σ^A, 20 nM 384 bp DNA fragment containing the bacteriophage T4 N25 promoter, 100 μM ATP, 100 μM GTP, 100 μM UTP, 100 μM CTP, 40 mM Tris-HCl, pH 8.0, 80 mM NaCl, 5 mM MgCl2, 2.5 mM DTT, and 12.7% glycerol. IC50 is defined as the concentration of inhibitor resulting in 50% inhibition of RNA polymerase activity.

[9] = target: M. tuberculosis RNA polymerase core enzyme + σA (Mycobacterium tuberculosis (strain ATCC 25618 / H37Rv), UniProt P9WGY7+P9WGY9); test: Fluorescence-detected RNA polymerase assay, M. tuberculosis RNAP; assay type: biochemical
Protocol: as §1
as §2, with “M. tuberculosis” for “S. aureus”

[10] = tested on: Bacillus anthracis Vollum-1b; test: microbe, parasite or virus in culture; assay type: cell-based; conditions: VOLLUM1B, read-out: MIC B. anthracis Vollum-1b
[11] = tested on: Streptococcus pyogenes ATCC 12344; test: MIC, spiral gradient endpoint assay (GC II agar, 5% CO2); conditions: ATCC12344, read-out: MIC S. pyogenes 12344
[12] = tested on: Mycobacterium tuberculosis H37Rv; test: MIC, microplate Alamar Blue assay; conditions: read-out: MIC M. tuberculosis H37Rv

Compound | MIC [1] [µg/mL] | MIC [2] [µg/mL] | MIC [3] [µg/mL] | MIC [4] [µg/mL] | MIC [5] [µg/mL] | MIC [6] [µg/mL] | pIC50 [7] | pIC50 [8] | pIC50 [9] | MIC [10] [µg/mL] | MIC [11] [µg/mL] | MIC [12] [µg/mL]
CC(C)CCC1=C(O)C(CCC(C)C)(CCC(C)C)C(=O)C(C(=O)CCc2ccccc2Cl)=C1O [Compound 1, 3,5-dihydroxy-2-(3-(2-chlorophenyl)propanoyl)-4,6,6-triisopentylcyclohexa-2,4-dienone] | 0.6 (≈ 1.19 µM) | 6.25 (≈ 12.4 µM) | 2 (≈ 3.98 µM) | > 40 | 15 (≈ 29.8 µM) | 24 (≈ 47.7 µM) | 5.68 | 5.24 | 5.92 | 0.049 (≈ 0.0974 µM) | 19 (≈ 37.8 µM) | 50 (≈ 99.4 µM)
CC(C)CCC1=C(O)C(CCC(C)C)(CCC(C)C)C(=O)C(C(=O)CCc2cccc(Cl)c2)=C1O [Compound 2, 3,5-dihydroxy-2-(3-(3-chlorophenyl)propanoyl)-4,6,6-triisopentylcyclohexa-2,4-dienone] | 0.5 (≈ 0.994 µM) | > 50 | 1 (≈ 1.99 µM) | 19 (≈ 37.8 µM) | 12 (≈ 23.9 µM) | 15 (≈ 29.8 µM) | 5.60 | 5.23 | 5.66 | 0.098 (≈ 0.195 µM) | 19 (≈ 37.8 µM) | 50 (≈ 99.4 µM)
CC(C)CCC1=C(O)C(CCC(C)C)(CCC(C)C)C(=O)C(C(=O)CCc2ccc(Cl)cc2)=C1O [Compound 3, 3,5-dihydroxy-2-(3-(4-chlorophenyl)propanoyl)-4,6,6-triisopentylcyclohexa-2,4-dienone] | 0.4 (≈ 0.795 µM) | > 50 | 1 (≈ 1.99 µM) | 19 (≈ 37.8 µM) | 19 (≈ 37.8 µM) | 8 (≈ 15.9 µM) | 6.20 | 5.62 | 6.11 | 0.049 (≈ 0.0974 µM) | 19 (≈ 37.8 µM) | 50 (≈ 99.4 µM)
COc1ccccc1CCC(=O)C1=C(O)C(CCC(C)C)=C(O)C(CCC(C)C)(CCC(C)C)C1=O [Compound 4, 3,5-dihydroxy-2-(3-(2-methoxyphenyl)propanoyl)-4,6,6-triisopentylcyclohexa-2,4-dienone] | 0.6 (≈ 1.2 µM) | > 50 | 3 (≈ 6.02 µM) | > 40 | 2.7 (≈ 5.41 µM) | 12 (≈ 24.1 µM) | 5.72 | 5.37 | 5.80 | 0.098 (≈ 0.197 µM) | 15 (≈ 30.1 µM) | > 50
COc1cccc(CCC(=O)C2=C(O)C(CCC(C)C)=C(O)C(CCC(C)C)(CCC(C)C)C2=O)c1 [Compound 5, 3,5-dihydroxy-2-(3-(3-methoxyphenyl)propanoyl)-4,6,6-triisopentylcyclohexa-2,4-dienone] | 0.4 (≈ 0.802 µM) | 1.56 (≈ 3.13 µM) | 2 (≈ 4.01 µM) | 19 (≈ 38.1 µM) | 3.5 (≈ 7.02 µM) | 2 (≈ 4.01 µM) | 5.96 | 5.51 | 5.96 | 0.049 (≈ 0.0983 µM) | 7.1 (≈ 14.2 µM) | 50 (≈ 100 µM)
